Results as given in US20230263822A1, “MODULATION OF FACTOR 11 EXPRESSION” (Ionis Pharmaceuticals, Inc., priority 2008, published 2023).

Columns and labels:
[1] = mouse, in vivo
Experimental: A control group of five mice was injected subcutaneously with PBS for 2 weeks. All experimental groups (i.e. ASO treated mice at 2, 4, 6 weeks) were compared to the control group (i.e. PBS, 2 weeks).
Blood obtained from all mice groups were sent to Antech Diagnostics for hematocrit (HCT), mean corpuscular volume (MCV), mean corpuscular hemoglobin (MCH), and mean corpuscular hemoglobin concentration (MCHC) measurements and analyses, as well as measurements of the various blood cells, such as WBC (neutrophils, lymphocytes, and monocytes), RBC, and platelets, and total hemoglobin content.

[2] = mouse, in vivo, sc, 50 mg/kg
[3] = mouse, in vivo, sc, 50 mg/kg; remark: listed apart in the source
[4] = system: Factor 11 protein; experiment: Factor 11 protein in monkey plasma by sandwich ELISA (Example 45); format: in vivo, cynomolgus monkeys; settings: escalating dose regimen; for Inhibition of Factor 11 protein relative to the PBS control: plasma ELISA
Experimental: Groups, each consisting of two male and three female monkeys, were injected subcutaneously with ISIS 416838, ISIS 416850, ISIS 416858, ISIS 416864, or ISIS 417002 in escalating doses. Antisense oligonucleotide was administered to the monkeys at 5 mg/kg three times per a week for week 1; 5 mg/kg twice per week for weeks 2 and 3; 10 mg/kg three times per week for week 4; 10 mg/kg twice per week for weeks 5 and 6; 25 mg/kg three times per week for week 7; and 25 mg/kg twice per week for weeks 8, 9, 10, 11, and 12. One control group, consisting of two male and three female monkeys, was injected subcutaneously with PBS according to the same dosing regimen. An additional experimental group, consisting of two male and three female monkeys, was injected subcutaneously with ISIS 416850 in a chronic, lower dose regimen. Antisense oligonucleotide was administered to the monkeys at 5 mg/kg three times per week for week 1; 5 mg/kg twice per week for week 2 and 3; 10 mg/kg three times per week for week 4; and 10 mg/kg twice per week for weeks 5 to 12. Body weights were measured weekly. Blood samples were collected 14 days and 5 days before the start of treatment and subsequently once per week for Factor 11 protein activity analysis in plasma, fibrinogen measurement, PT and aPTT measurements, bleeding times, and measurement of various hematologic factors. On day 85, the monkeys were euthanized by exsanguination while under deep anesthesia, and organs harvested for further analysis.
Plasma samples from all monkey groups taken on different days were analyzed by a sandwich-style ELISA assay (Affinity Biologicals Inc.) using an affinity-purified polyclonal anti-Factor 11 antibody as the capture antibody and a peroxidase-conjugated polyclonal anti-Factor 11 antibody as the detecting antibody. Monkey plasma was diluted 1:50 for the assay. Peroxidase activity was expressed by incubation with the substrate o-phenylenediamine. The color produced was quantified using a microplate reader at 490 nm and was considered to be proportional to the concentration of Factor 11 in the samples.
The results are presented in Table 115, expressed as percentage reduction relative to that of the PBS control.

Substance | ALT [2] [IU/L] | AST [2] [IU/L] | Bilirubin [2] [mg/dL] | Cholesterol [2] [mg/dL] | HCT [3] [%] | Lymphocyte [3] [cells/μL] | Neutrophil [3] [cells/μL] | Platelets [3] | RBC [3] | WBC [3] | hemoglobin [3] [g/dL] | monocytes [3] [cells/μL] | Inhibition of Factor 11 protein relative to the PBS control ([4]; day 8) [%] | Inhibition of Factor 11 protein relative to the PBS control ([4]; day 15) [%] | Inhibition of Factor 11 protein relative to the PBS control ([4]; day 22) [%] | Inhibition of Factor 11 protein relative to the PBS control ([4]; day 29) [%] | Inhibition of Factor 11 protein relative to the PBS control ([4]; day 36) [%] | Inhibition of Factor 11 protein relative to the PBS control ([4]; day 43) [%] | Inhibition of Factor 11 protein relative to the PBS control ([4]; day 50) [%] | Inhibition of Factor 11 protein relative to the PBS control ([4]; day 57) [%] | also measured
ISIS 416858: MOE gapmer, nucleobases 1275 to 1318 of SEQ ID NO: 1 (Table 8) (antisense ACGGCATTGGTGCACAGTTT; MOE gapmer, wing and gap sizes not given here) | 640 | 547 | 0.28 | 181 | 50 | 5480 | 2229 | 782 10^3/μL | 9 10^6/μL | 8 10^3/μL | 14 | 248 | 6 | 16 | 23 | 28 | 35 | 39 | 49 | 60 | RBC count [1]: 9 cells/pL; Factor 11 protein levels in plasma ([4]; cynomolgus monkeys, ELISA): time-dependent decrease in protein levels; Inhibition of Factor 11 protein relative to the PBS control ([4]; day 64): 68%; Inhibition of Factor 11 protein relative to the PBS control ([4]; day 71): 71%; Inhibition of Factor 11 protein relative to the PBS control ([4]; day 78): 73%; Inhibition of Factor 11 protein relative to the PBS control ([4]; day 85): 78%; Inhibition of Factor 11 protein relative to the PBS control ([4]; day −5): 0%; Inhibition of Factor 11 protein relative to the PBS control ([4]; day −14): 0%
ISIS 416864: MOE gapmer, nucleobases 1275 to 1318 of SEQ ID NO: 1 (Table 8) (antisense GGCAGCGGACGGCATTGGTG; MOE gapmer, wing and gap sizes not given here) | 36 | 67 | 0.19 | 152 | 52 | 3921 | 973 | 750 10^3/μL | 10 10^6/μL | 5 10^3/μL | 15 | 141 | 7 | 9 | 7 | 10 | 9 | 9 | 10 | 7 | MCHC ([1]; sc, 50 mg/kg): 31%; Inhibition of Factor 11 protein relative to the PBS control ([4]; day 64): 5%; Inhibition of Factor 11 protein relative to the PBS control ([4]; day 71): 10%; Inhibition of Factor 11 protein relative to the PBS control ([4]; day 78): 9%; Inhibition of Factor 11 protein relative to the PBS control ([4]; day 85): 8%; Inhibition of Factor 11 protein relative to the PBS control ([4]; day −5): 5%; Inhibition of Factor 11 protein relative to the PBS control ([4]; day −14): 0%
